ChEMBL document CHEMBL1201862, “PubChem BioAssay data set” (2004)
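Assay format: 96-well plates, 48-hour exposure. GI50 is the concentration that inhibits growth by half.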 Active and inactive are the calls of the source. No stated cut-off is given here; in the data, active = GI50 up to about 1.1 µM and inactive = higher.

Legend:
Assay in all cases: NCI-60 cell line screen, 48 h
UACC-62 = system: UACC-62
SK-OV-3 = system: SK-OV-3
PC-3 = system: PC-3
SF-268 = system: SF-268
NCI-H226 = system: NCI-H226
CAKI-1 = system: CAKI-1
HOP-62 = system: HOP-62
HL-60 = system: HL-60
NCI-H460 = system: NCI-H460
HT-29 = system: HT-29
IGROV-1 = system: IGROV-1
SK-MEL-2 = system: SK-MEL-2
SW-620 = system: SW-620
HCC 2998 = system: HCC 2998
OVCAR-8 = system: OVCAR-8
M14 = system: M14
NCI-H522 = system: NCI-H522
SF-295 = system: SF-295
RPMI-8226 = system: RPMI-8226
Malme-3M = system: Malme-3M

Measured: GI50

COC(=O)C1=C(C(=O)Nc2cccnc2Cl)N(c2ccc(OC)cc2[N+](=O)[O-])C(c2ccc(C)cc2)=CC1c1ccc(OC)cc1OC (stereo not given)
inactive: UACC-62 24.3 µM | SK-OV-3 23.7 µM | PC-3 27.5 µM | SF-268 24.6 µM | NCI-H226 12.9 µM | CAKI-1 36.9 µM | HOP-62 23.3 µM | HL-60 4.61 µM | NCI-H460 23.9 µM | HT-29 3.89 µM | IGROV-1 5.94 µM | SK-MEL-2 17.9 µM | SW-620 4.66 µM | HCC 2998 8.61 µM | OVCAR-8 8.79 µM | M14 13.7 µM | NCI-H522 2.59 µM | SF-295 23.2 µM | RPMI-8226 2.37 µM | Malme-3M 12.6 µM

O=[N+]([O-])c1c(F)c(F)c2c(c1F)Nc1ccccc1S2
inactive: UACC-62 5.61 µM | SK-OV-3 18.2 µM | PC-3 9.16 µM | SF-268 2.49 µM | NCI-H226 16.9 µM | CAKI-1 3.99 µM | HOP-62 12.6 µM | HL-60 4.29 µM | NCI-H460 6 µM | HT-29 2.07 µM | IGROV-1 3.08 µM | SK-MEL-2 2.14 µM | SW-620 2.77 µM | HCC 2998 2.76 µM | OVCAR-8 1.96 µM | M14 3.64 µM | NCI-H522 4.68 µM | SF-295 17.3 µM | RPMI-8226 4.7 µM | Malme-3M 5.55 µM

CC[C@@]1(O)C(=O)OCc2c1cc1n(c2=O)Cc2c-1nc1ccccc1c2/C=N\NC(=O)C1CCCN1 (stereo not given in full)
active: UACC-62 < 0.0182 µM | SK-OV-3 0.442 µM | SF-268 < 0.0225 µM | NCI-H226 0.117 µM | CAKI-1 0.254 µM | HOP-62 < 0.0196 µM | HL-60 0.046 µM | NCI-H460 0.266 µM | SW-620 0.185 µM | OVCAR-8 0.258 µM | M14 0.147 µM | NCI-H522 0.282 µM | SF-295 0.386 µM | RPMI-8226 0.818 µM
inactive: PC-3 2.47 µM | HT-29 1.15 µM | IGROV-1 5.2 µM | SK-MEL-2 11.8 µM | HCC 2998 1.98 µM | Malme-3M 1.79 µM

c1ccc([P+](Cc2ccccc2C[P+](c2ccccc2)(c2ccccc2)c2ccccc2)(c2ccccc2)c2ccccc2)cc1
inactive: UACC-62 44.2 µM | SK-OV-3 > 100 µM | PC-3 > 100 µM | SF-268 > 100 µM | NCI-H226 > 100 µM | CAKI-1 > 100 µM | HOP-62 > 100 µM | HL-60 22.8 µM | NCI-H460 38.9 µM | HT-29 51.2 µM | IGROV-1 66.1 µM | SK-MEL-2 > 100 µM | SW-620 > 100 µM | HCC 2998 > 100 µM | OVCAR-8 > 100 µM | M14 > 100 µM | NCI-H522 > 100 µM | SF-295 57.8 µM | RPMI-8226 6.03 µM | Malme-3M > 100 µM

O=C(O)/C=C/c1c2ccc(=O)c(O)c-2oc2c(O)c(O)ccc12
inactive: UACC-62 50.1 µM | SK-OV-3 98.4 µM | PC-3 > 100 µM | SF-268 > 100 µM | NCI-H226 70.8 µM | CAKI-1 > 100 µM | HOP-62 23.4 µM | HL-60 82.2 µM | NCI-H460 > 100 µM | HT-29 63.7 µM | IGROV-1 82.6 µM | SK-MEL-2 55.1 µM | SW-620 20.7 µM | HCC 2998 > 100 µM | OVCAR-8 40.1 µM | M14 47.4 µM | NCI-H522 > 100 µM | SF-295 24.4 µM | RPMI-8226 23.2 µM | Malme-3M > 100 µM

C/C(=C\CO)CC/C=C(\C)CNc1c(F)c(F)c(F)c(F)c1F
inactive: UACC-62 17.2 µM | SK-OV-3 63.8 µM | PC-3 21.1 µM | SF-268 23.1 µM | NCI-H226 28.1 µM | CAKI-1 33.3 µM | HOP-62 24.7 µM | HL-60 28.7 µM | NCI-H460 36.1 µM | HT-29 24 µM | IGROV-1 49.5 µM | SK-MEL-2 20.7 µM | SW-620 33.2 µM | HCC 2998 24.7 µM | OVCAR-8 19.8 µM | M14 38.2 µM | NCI-H522 18.4 µM | SF-295 22.4 µM | RPMI-8226 14 µM | Malme-3M 27.4 µM

O=C(O)c1cc2c(cc1S(=O)(=O)O)C1C(C3C2C2(Cl)C(Cl)=C(Cl)C3(Cl)C2(Cl)Cl)C2(Cl)C(Cl)=C(Cl)C1(Cl)C2(Cl)Cl (stereo not given)
inactive: UACC-62 21.9 µM | SK-OV-3 39.9 µM | PC-3 41 µM | SF-268 58.7 µM | NCI-H226 23.4 µM | CAKI-1 > 100 µM | HOP-62 26.2 µM | HL-60 2.43 µM | NCI-H460 34.6 µM | HT-29 21.8 µM | IGROV-1 50.4 µM | SK-MEL-2 27 µM | SW-620 37.2 µM | HCC 2998 20.8 µM | OVCAR-8 54.7 µM | M14 37.3 µM | NCI-H522 17.7 µM | SF-295 23.2 µM | RPMI-8226 32.6 µM | Malme-3M 64.7 µM

CCSC1=N/C(=C\c2ccc(N(C)C)cc2)C(Cl)=N1
inactive: UACC-62 > 100 µM | SK-OV-3 > 100 µM | PC-3 > 100 µM | SF-268 > 100 µM | NCI-H226 > 100 µM | CAKI-1 > 100 µM | HOP-62 > 100 µM | HL-60 > 100 µM | NCI-H460 > 100 µM | HT-29 > 100 µM | IGROV-1 > 100 µM | SK-MEL-2 > 100 µM | SW-620 > 100 µM | HCC 2998 > 100 µM | OVCAR-8 > 100 µM | M14 > 100 µM | NCI-H522 > 100 µM | SF-295 > 100 µM | RPMI-8226 59.3 µM | Malme-3M > 100 µM

C=C(CCC(=O)N(CCc1c[nH]c2ccccc12)C(=O)c1ccccc1CSCC)C(=O)OC
inactive: UACC-62 12.4 µM | SK-OV-3 > 71.3 µM | PC-3 23.2 µM | SF-268 > 77.3 µM | NCI-H226 53.7 µM | CAKI-1 84.1 µM | HOP-62 > 69.2 µM | HL-60 3.46 µM | NCI-H460 32.2 µM | HT-29 19.5 µM | IGROV-1 60.1 µM | SK-MEL-2 48.6 µM | SW-620 49.9 µM | HCC 2998 43.7 µM | OVCAR-8 48.4 µM | M14 44.6 µM | NCI-H522 23.6 µM | SF-295 24.7 µM | RPMI-8226 7.59 µM | Malme-3M 48.9 µM

CN(C)/C=N/S(=O)(=O)c1nn2c(C=O)c(-c3ccc(-c4ccccc4)cc3)nc2s1
inactive: UACC-62 2.34 µM | SK-OV-3 15.1 µM | PC-3 2 µM | SF-268 2.1 µM | NCI-H226 13.3 µM | CAKI-1 1.31 µM | HOP-62 8.61 µM | NCI-H460 5.51 µM | IGROV-1 1.24 µM | SK-MEL-2 2.69 µM | HCC 2998 6 µM | OVCAR-8 5.28 µM | SF-295 14.4 µM | Malme-3M 1.32 µM
active: HL-60 0.141 µM | HT-29 0.347 µM | SW-620 0.724 µM | M14 0.904 µM | NCI-H522 0.385 µM | RPMI-8226 0.83 µM
